The results in this text go back to patent publication US9969744B2, “Compounds for use in cognition improvement” (FUNDACIÓN PARA LA INVESTIGACIÓN MÉDICA APLICADA, priority 2014, dated 2018).

One assay addresses T1, PDE5A1 (Homo sapiens, UniProt O76074).
T1 construct: they are full-length with N-terminal GST tag; GST (N); purchased BPS Biosciences 60050; host or cells: baculovirus infected Sf9 cells
The assay can be described thus: PDE enzyme activity assay (HTRF cGMP), PDE5A. The format is biochemical. As to conditions: recombinant enzyme; read-out: PDE5A1 inhibition (IC50). (TR-FRET usually uses a lanthanide donor and a delayed reading to cut background.)

In assay [1] the test system is acetylated histone 3 at Lys9 (AcH3K9). The assay can be described thus: HDAC activity using SHSY-5Y cell line (Western blot, histone 3 acetylation). Also on record: key: basal x1 means no increment (+); basal x1.4≤(++)<basal x2; basal x2≤(+++)<basal x3; basal x3≤(++++); N.E. means No Effect. The assay is classed as cell-based, human. As to conditions: SHSY-5Y cells, 24 hours. Here is the method: HDAC inhibition leads to the corresponding functional response, increase in AcH3 level. Therefore, the cellular assay to conclude HDAC activity was assessed by Western blot analysis using specific antibodies against acetylated histone 3 at Lys9 (AcH3K9). Cell cultures were treated at 100 nM, 500 nM, 1 μM and/or 5 μM with compounds of the invention or known PDE inhibitors during 24 hours and, Table 1 (below) describes the functional activity: histone 3 acetylation level (AcH3) vs basal (no treatment).
A human neuroblastoma cell line (SHSY-5Y) was used. Cell line was obtained from ATCC (CRL-2266) and cultured in 35 mm plates (Becton Dickinson, NJ).
The cells were grown to 90% confluence at 37° C. in an atmosphere of 5% CO2 and in Dulbecco's modified Eagle's medium supplemented with Glutamax (Gibco, Invitrogen, CA), 100 units/ml penicillin/streptomycin, 1×MEM nonessential amino acids and 10% fetal bovine serum (Gibco, Invitrogen, CA).
Cells were collected and sonicated in a buffer containing a cold lysis buffer with protease inhibitors (0.2 M NaCl, 0.1 M HEPES (4-(2-hydroxyethyl)-1-piperazineethanesulfonic acid), 10% glycerol, 200 mM NaF, 2 mM Na4P2O7, 5 mM EDTA (ethylenediaminetetraacetic acid), 1 mM EGTA (ethylene glycol tetraacetic acid), 2 mM DTT (dithiothreitol), 0.5 mM PMSF (phenylmethylsulfonyl fluoride), 1 mM Na3VO4 and Complete Protease Inhibitor Cocktail, Roche Diagnostics), centrifuged at 14,000×g 4° C. for 20 min and the supernatant was aliquoted and stored at −80° C. Total protein concentrations were determined using the BioRad Bradford protein assay (BioRad Laboratories).
Protein samples were mixed with Laemmli sample buffer, resolved onto Sodium Dodecyl Sulfate (SDS)-polyacrylamide gels and transferred to nitrocellulose membrane. The membranes were blocked with 5% milk, 0.05% Tween-20 in PBS (Phosphate-Buffered Saline) or TBS (Tris-Buffered Saline) followed by overnight incubation with the following primary antibodies: rabbit polyclonal anti-acetylated Histone 3 (acetyl K9) (Cell Signalling Technology), rabbit polyclonal anti-total Histone 3 (Millipore), in the corresponding buffer. All the antibodies were used at 1:1000 dilution except the mouse monoclonal anti-β-actin which was used at 1:50.000. Following two washes in TBS/Tween20 and one wash in TBS alone, immunolabeled protein bands were detected by using HRP-conjugated anti-rabbit or anti-mouse antibody (Santa Cruz Biotechnology; dilution 1:5.000) following an enhanced chemiluminescence system (ECL, GE Healthcare Bioscience, Buckinghamshire, UK), and autoradiographic exposure to HyperfilmtECL (GE Healthcare Bioscience). Quantity One™ software v.4.6.3 (Bio-Rad) was used for quantification.
For orientation: Immunoblotting shows a protein as a band on a membrane.

One may read the IC50 as the concentration at which inhibition is half-maximal. Consider `CCCc1nn(C)c2c(=O)[nH]c(-c3cc(CC4CC(C(=O)Nc5ccccc5N)C4)ccc3OCC)nc12` (racemic) [Example 1-04, N-(2-aminophenyl)-3-[[4-ethoxy-3-(1-methyl-7-oxo-3-propyl-6H-pyrazolo[4,3-d]pyrimidin-5-yl)phenyl]methyl]cyclobutanecarboxamide], for which, at PDE5A1, the IC50 lay in the range of 10 to 1000 nM. Besides, the “AcH3: increment in Histone 3 acetylation level vs basal” value (shortened to “AcH3: increment … vs basal”) in assay [1] (compound concentration 1 μM) is “++++ (basal x3≤(++++))”. In the same order, the values of `CCCc1nn(C)c2c(=O)[nH]c(-c3cc(C4CCC(C(=O)Nc5ccccc5N)CC4)ccc3OCC)nc12` (racemic) [Example 1-05, N-(2-aminophenyl)-4-[4-ethoxy-3-(1-methyl-7-oxo-3-propyl-6H-pyrazolo[4,3-d]pyrimidin-5-yl)phenyl]cyclohexanecarboxamide] are 10 to 1000 nM and “+++ (basal x2≤(+++)<basal x3)”.

For `CCCc1nc(C)c2c(=O)[nH]c(-c3cc(CC4CC(C(=O)Nc5ccccc5N)C4)ccc3OCC)nn12` (racemic) [Example 2-04, N-(2-aminophenyl)-3-[[4-ethoxy-3-(5-methyl-4-oxo-7-propyl-3H-imidazo[5,1-f][1,2,4]triazin-2-yl)phenyl]methyl]cyclobutanecarboxamide], on PDE5A1, the IC50 is less than 10 nM. Further, the “AcH3: increment … vs basal” value in assay [1] (compound concentration 1 μM) is listed as “++++ (basal x3≤(++++))”. In the case of `Nc1ccccc1NC(=O)c1cnc(N2CCC(CN3CC(=O)N4C(Cc5c([nH]c6ccccc56)C4c4ccc5c(c4)OCO5)C3=O)CC2)nc1` (racemic) [Example 4-01, N-(2-aminophenyl)-2-(4-((6-(benzo[d][1,3]dioxol-5-yl)-1,4-dioxo-3,4,6,7,12,12a-hexahydropyrazino[1′,2′:1,6]pyrido[3,4-b]indol-2(1H)-yl)methyl)piperidin-1-yl)pyrimidine-5-carboxamide], the IC50 at PDE5A1 was in the range of 1000 to 10000 nM. In assay [1] (compound concentration 5 μM), the “AcH3: increment … vs basal” value is reported as “++ (basal x1.4≤(++)<basal x2)”.

As for `CCCc1nn(C)c2c(=O)[nH]c(-c3cc(S(=O)(=O)N4CCN(c5ncc(C(=O)Nc6ccccc6N)cn5)CC4)ccc3OCC)nc12` [Example 1-01, N-(2-aminophenyl)-2-[4-[4-ethoxy-3-(1-methyl-7-oxo-3-propyl-6H-pyrazolo[4,3-d]pyrimidin-5-yl)phenyl]sulfonylpiperazin-1-yl]pyrimidine-5-carboxamide], the IC50 at PDE5A1 lay in the range of 10 to 1000 nM. The “AcH3: increment … vs basal” value in assay [1] (compound concentration 1 μM) is “+++ (basal x2≤(+++)<basal x3)”. For `CCCc1nn(C)c2c(=O)[nH]c(-c3cc(S(=O)(=O)NC4CCN(c5ncc(C(=O)Nc6ccccc6N)cn5)CC4)ccc3OCC)nc12` [Example 1-02], the IC50 at PDE5A1 is 10 to 1000 nM. Also, the “AcH3: increment … vs basal” value in assay [1] (compound concentration 1 μM) is reported as “+++ (basal x2≤(+++)<basal x3)”. Taken in the same sequence, the figures for `CCCc1nn(C)c2c(=O)[nH]c(-c3cc(S(=O)(=O)NCc4ccc(C(=O)Nc5ccccc5N)cc4)ccc3OCC)nc12` [Example 1-03] were 10 to 1000 nM and “++++ (basal x3≤(++++))”. As to `CCCc1nn(C)c2c(=O)[nH]c(-c3cc(C4CCC(C(=O)Nc5ccccc5N)CC4)ccc3OCC)nc12` (stereo not shown) [Example 1-06, N-(2-aminophenyl)-4-[4-ethoxy-3-(1-methyl-7-oxo-3-propyl-6H-pyrazolo[4,3-d]pyrimidin-5-yl)phenyl]cyclohexanecarboxamide], at PDE5A1, the IC50 is 10 to 1000 nM. Besides, the “AcH3: increment … vs basal” value in assay [1] (compound concentration 1 μM) is listed as “+++ (basal x2≤(+++)<basal x3)”. As for `CCCc1nn(C)c2c(=O)[nH]c(-c3cc(Cc4ccc(C(=O)Nc5ccccc5N)s4)ccc3OCC)nc12` [Example 1-08], the IC50 on PDE5A1 lay within 10 to 1000 nM. Further, the “AcH3: increment … vs basal” value in assay [1] (compound concentration 1 μM) is reported as “++++ (basal x3≤(++++))”. For `CCCc1nn(C)c2c(=O)[nH]c(-c3cc(S(=O)(=O)N4CCN(C)CC4)ccc3OCC)nc12` [Sildenafil, reference compound], the “AcH3: increment … vs basal” value in assay [1] (compound concentration 1 μM) is recorded as “N.E”.
